Reference: patent US5989846A, “Assays to identify inducers of plant defense resistance” (Rutgers, The State University of New Jersey, priority 1995, dated 1999)

How the values were obtained:
ascorbate peroxidase = assay: Ascorbate peroxidase activity in tobacco leaf extracts; type: biochemical, Nicotiana tabacum cv. Xanthi nc
Procedure, shortened: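 Soluble extracts from leaves of 6–8-week Nicotiana tabacum cv. Xanthi nc, desalted into 50 mM potassium phosphate pH 7 with 100 μM ascorbate, were assayed (30–50 μg protein) with or without 100 or 1000 μM SA or INA. Ascorbate oxidation followed as A290 decrease; means of three replicates.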

[1] = test system: catalases from non-plant sources; assay: Inhibition of non-plant catalases by salicylic acid; type: biochemical; settings: catalases from fungi and animals
From the text: Genes or cDNA copies for several of these catalases have been cloned (e.g. Scandalios, J. G. et al., Proc. Natl. Acad. Sci. USA, 77 (1980) 5360-5364; Bell, G. I. et al., Nucleic Acids Res., 14, (1986), 5561-5562; Hartig, A. et al., Eur. J. Biochem, 160, (1986) 487-490). A gene encoding one of these catalases can be introduced and expressed in a plant in the sense orientation using appropriate regulatory sequences (e.g. CaMV 35S promoter and nopaline synthase cleavage and polyadenylation signal) and vectors (e.g. PCGN 1540 or pCIB3064) as described in Example 25.

plant processes = test system: plant processes; set-up: key: +: induces or enhances; -: reduces or inhibits; settings: addition of salicylic acid to plants; cited from earlier work
[2] = test system: resistance or PR gene expression; set-up: key: ++: indicates a high level of biological activity; +: indicates a lower level of biological activity; ±: indicates low, but detectable biological activity in some assays; -: indicates no biological activity; settings: Table 3; values reported in literature; cited from earlier work

O=C(O)c1ccccc1O [salicylic acid, 2-hydroxybenzoic acid]
% Inhibition of ascorbate peroxidase (ascorbate peroxidase; 200 μM compound, corrected for quenching of auto oxidation): 83 ± 9% | IC50 (ascorbate peroxidase; 750 μM ascorbate, 25 to 500 μM compound, FIG. 17, read-out: Concentration necessary for 50% inhibition (I50) of ascorbate peroxidase): ~80 µM | Activity (ascorbate peroxidase; APX, 100 μM compound): 2.0 ± 0.2 μmols of oxidized substrate mi | Inhibition (ascorbate peroxidase; APX, 100 μM compound): 59% | Activity (ascorbate peroxidase; APX, 1,000 μM compound): 0.24 ± 0.1 μmols of oxidized substrate mi | Inhibition (ascorbate peroxidase; APX, 1,000 μM compound): 95% | Sensitivity of non-plant catalases to inhibition [1]: insensitive to inhibition | Effect on Adventitious root initiation (plant processes): + | Effect on Alternative pathway (plant processes): + | Effect on Disease resistance (plant processes): + | Effect on Ethylene biosynthesis (plant processes): - | Effect on Flowering (plant processes): + | Effect on Fruit yield (plant processes): + | Effect on Gene regulation (plant processes): + | Effect on Glycolysis (plant processes): + | Effect on Growth inhibition (plant processes): + | Effect on Krebs cycle (plant processes): + | Effect on Leaf abscission (plant processes): - | Effect on Photonastic leaflet movement (plant processes): + | Effect on Potassium ion absorption (plant processes): - | Effect on Scotonastic leaflet movement (plant processes): - | Effect on Seed germination (plant processes): - and + | Effect on Somatic embryogenesis (plant processes): - | Effect on Stomatal closure (plant processes): - | Effect on Thermogenesis (plant processes): + | Effect on Transpiration (plant processes): - | Effect on Wound response (plant processes): - | Biological activity [2]: ++
